This is an account of results in patent US7135572B2 (CJ Corp, priority 2001, dated 2006).

For one assay, the target named is T1, cyclooxygenase-1 (Homo sapiens, UniProt P23219).
T1 construct: The cultured U-937 (humane lymphoma cell, obtained from Korean cell line bank) was centrifuged to collect the pellet; endogenous in cells; host or cells: U-937 (human lymphoma cell line, Korean cell line bank)
Description: Inhibition of cyclooxygenase-1 in U-937 cells (PGE2 quantitation). The note with it: U-937 cells. Format: cell-based. As to the method: (§1) In order to investigate pharmacologically the selective inhibition activity against cyclooxygenase-2 enzyme, the inhibitive effects against cyclooxygenase-1 and cyclooxygenase-2 were measured by two methods as follows.
Then, the pellet was diluted with 1×HBSS(Hank's balanced salt solutin) at the concentration of 1×10^6 cells/ml, and 1 ml of them was transferred into each well of 12-well plates, and then dissolved with DMSO. 5μl of the diluted sample solution, and 5μl of DMSO vehicle were added therein and mixed, and the mixture was cultured at 37° C. in Co2 incubator for 15 minutes. Arachidonic acid as a substrate was dissolved in ethanol to prepare a stock solution with a concentration of 10 mM, followed by diluting with 1×HBSS to prepare the solution of 1 mM. 10 μl of 1 mM Arachidonic acid solution was added to each of the treated wells, and the mixture was cultured at 37° C. in CO2 incubator for 30 minutes. The cell solution of each well was collected in the centrifuge tube and was centrifuged at 4° C. for 5 minutes at 10,000 rpm. As PGE2 existed in the supernatant separated from collected cell, the concentration of PGE2 was quantitated by using monoclonal kit from Cayman Chemicals, and the concentration of samples and vehicle were compared to estimate the inhibition ratio (%) of each compound against cyclooxygenase-1. Ultimately, the inhibition effect against the cyclooxygenase-1 enzyme was obtained from the result.

The target in another assay is T2, cyclooxygenase-2 (Mus musculus, UniProt Q05769).
T2 construct: endogenous in cells; host or cells: Raw 264.7 (Korean cell line bank), aspirin-pretreated, induced with interferon gamma and LPS
T2 sequence (Q05769 18-604): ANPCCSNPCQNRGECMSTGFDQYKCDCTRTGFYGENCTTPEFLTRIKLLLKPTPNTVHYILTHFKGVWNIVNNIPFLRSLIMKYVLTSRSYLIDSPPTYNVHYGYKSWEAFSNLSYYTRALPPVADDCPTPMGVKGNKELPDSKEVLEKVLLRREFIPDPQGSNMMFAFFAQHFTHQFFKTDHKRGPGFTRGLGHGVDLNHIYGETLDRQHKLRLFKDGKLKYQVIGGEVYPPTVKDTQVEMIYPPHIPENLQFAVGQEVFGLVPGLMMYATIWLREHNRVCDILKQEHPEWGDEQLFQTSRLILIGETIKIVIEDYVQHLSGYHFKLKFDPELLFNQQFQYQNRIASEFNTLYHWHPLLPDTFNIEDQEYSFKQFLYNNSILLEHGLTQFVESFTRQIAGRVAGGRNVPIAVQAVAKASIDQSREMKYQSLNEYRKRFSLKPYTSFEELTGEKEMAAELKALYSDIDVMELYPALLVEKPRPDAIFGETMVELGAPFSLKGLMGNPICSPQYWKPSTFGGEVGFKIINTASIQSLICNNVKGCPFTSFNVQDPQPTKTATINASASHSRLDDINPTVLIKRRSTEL
The assay is described as follows: Inhibition of cyclooxygenase-2 in Raw 264.7 cells treated with interferon γ and LPS (PGE2 EIA). Format: cell-based. The note with it: for Inhibitory effects of cyclooxygenase (COX): COX-2: Raw 264.7 cells. The method, then:
as §1
And then, each samples were replaced with new media and cultured for 30 minutes. In addition, the samples was treated with 100 units/ml of interferon Υ and 100 ng/ml of lipopolysaccharide(LPS), and cultured for 18 hours. Then, the media was transferred to other tubes and the PGE 2 was quantitated by using EIA kit from Cayman Chemicals.

T1 sequence (P23219 24-599): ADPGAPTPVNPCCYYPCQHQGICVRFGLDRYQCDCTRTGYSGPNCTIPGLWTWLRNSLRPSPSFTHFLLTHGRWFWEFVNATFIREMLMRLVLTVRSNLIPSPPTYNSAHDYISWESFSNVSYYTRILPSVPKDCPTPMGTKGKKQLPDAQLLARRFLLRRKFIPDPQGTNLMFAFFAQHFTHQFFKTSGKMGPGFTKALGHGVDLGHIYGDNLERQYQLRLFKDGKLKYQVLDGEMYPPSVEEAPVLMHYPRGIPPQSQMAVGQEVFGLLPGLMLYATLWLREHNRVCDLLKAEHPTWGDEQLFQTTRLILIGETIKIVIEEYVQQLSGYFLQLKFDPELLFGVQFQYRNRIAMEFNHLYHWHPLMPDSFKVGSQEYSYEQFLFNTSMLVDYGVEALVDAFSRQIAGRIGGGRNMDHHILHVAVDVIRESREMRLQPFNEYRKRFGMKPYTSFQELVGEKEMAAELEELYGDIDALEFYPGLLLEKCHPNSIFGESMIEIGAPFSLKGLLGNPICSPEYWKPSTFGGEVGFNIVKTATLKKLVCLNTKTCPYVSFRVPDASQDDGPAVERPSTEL

As to `Cc1nc(-c2ccc(Cl)cc2)n(-c2ccc(S(C)(=O)=O)cc2)n1` [Example 28, 5-(4-chloro-phenyl)-1-(4-methanesulfonyl-phenyl)-3-methyl-1H-[1,2,4]triazole], the “Inhibitory effects of cyclooxygenase (COX): COX-1” value (shortened to “Inhibitory effects … COX-1”) on cyclooxygenase-1 (3 μM) is given as 72.9 % inhibition; on cyclooxygenase-1 (10 μM), 73.1 % inhibition; on cyclooxygenase-1 (30 μM), 85.4 % inhibition. Moreover, the “Inhibitory effects of cyclooxygenase (COX): COX-2” value (from here on “Inhibitory effects … COX-2”) was 33.9 % inhibition at cyclooxygenase-2 (30 nM), 38.8 % inhibition on cyclooxygenase-2 (100 nM) and 57.8 % inhibition at cyclooxygenase-2 (300 nM).

For the compound `Cc1nc(-c2ccc(Br)cc2)n(-c2ccc(S(C)(=O)=O)cc2)n1` [Example 30, 5-(4-bromo-phenyl)-1-(4-methanesulfonyl-phenyl)-3-methyl-1H-[1,2,4]triazole], the “Inhibitory effects … COX-1” value was 77.6 % inhibition on cyclooxygenase-1 (3 μM), 79.8 % inhibition on cyclooxygenase-1 (10 μM) and 82.1 % inhibition on cyclooxygenase-1 (30 μM). Besides, the “Inhibitory effects … COX-2” value was determined as 27.3 % inhibition at cyclooxygenase-2 (30 nM), 29.8 % inhibition at cyclooxygenase-2 (100 nM) and 36.2 % inhibition on cyclooxygenase-2 (300 nM).

In the case of `Cc1nc(-c2ccc(Br)cc2)n(-c2ccc(S(C)(=O)=O)cn2)n1` [Example 31, 2-[5-(4-bromo-phenyl)-3-methyl-[1,2,4]triazole-1-yl]-5-methanesulfonyl-pyridine], the “Inhibitory effects … COX-1” value at cyclooxygenase-1 (3 μM) came out at 81.4 % inhibition; on cyclooxygenase-1 (10 μM), 82.0 % inhibition; at cyclooxygenase-1 (30 μM), 88.1 % inhibition. Further, the “Inhibitory effects … COX-2” value is 69.5 % inhibition on cyclooxygenase-2 (30 nM), 99.8 % inhibition at cyclooxygenase-2 (100 nM) and 99.9 % inhibition at cyclooxygenase-2 (300 nM). Besides, the “selectivity of cyclooxygenase-2 compared with the comparative substance (in words)” value on cyclooxygenase-2 (COX-2 versus COX-1) is reported as “hardly different”.
